{"source": "patent US8852240B2", "about": "“Methods and compositions for fostering and preserving bone growth” (Kieran Murphy, LLC, priority 2004, dated 2014)", "key": {"[1]": {"system": "marrow cavity of rat femur", "test": "Calcein labeling of mid-shaft sections of rat femur after bone marrow ablation (BMX)", "type": "in vivo", "settings": "for protection of bone formed in the marrow cavity (calcein fluorescent signal): BMX + PTH 21 days, then anti-resorptive agent for the next 63 days (days 22-84), FIG. 7A", "experimental": "FIG. 1A is a section of the mid-shaft of a rat femur following, respectively, 21 and 84 days of treatment. The groups include: (a) control—no bone marrow ablation (“BMX”) or anabolic agent, (b) BMX—bone marrow ablation alone; and (c) BMX+PTH−bone marrow ablation plus treatment for either 21 or 84 days with PTH 1-34 NH2. In addition, the rats were injected with calcein, a fluorescent dye, on 9, 8, 2 and 1 day prior to sacrificing the animals. Calcein becomes incorporated into bone and serves as a measure of bone growth and mineralization;\nFIG. 6A illustrates the degree of persistent bone growth achieved after 84 days with the administration of a biocompatible material, in this instance Cementek (Cementek LV, Non-stoichiometric hydroxyapatite prepared from the reaction between the acid and base calcium phosphates in the presence of an aqueous solution. Teknimid, 65500 VIV en Biggore, France) or Pepgen-15 (a high purity anorganic bovine graft material, radiopaque, peptide-enhanced to mimic autogeneous bone. Dentsply Friadent CeraMed Lakewood, Colo.). All samples were taken from femurs which had BMX performed on them. The groups included: BMX followed by 84 days anabolic agent or PBS (buffer) presented in the first row or BMX followed by insertion of a slurry of biocompatible matrix (Cementek or Pepgen-15) with our without concomitant PTH treatment for 84 days;\nFIGS. 7A and 7B illustrate the effect attributable to administration of the anti-resorption agent, Alendronate, in preserving bony tissue formed according to the method of the invention. The following treatment modalities are included: (a) BMX+PTH 1-34 NH2 for 21 days+PBS (buffer) during days 22-84; (b) BMX+PTH 1-34 NH2 for 21 days+calcitonin during days 22-84; (c) BMX+PTH 1-34 NH2 for 21 days+Alendronate during days 22-84; and (d) BMX+PTH 1-34 NH2 during days 1-84."}, "[2]": {"system": "femoral shaft marrow cavity", "test": "Micro-CT analysis of the femoral shaft marrow cavity after bone marrow ablation (BMX)", "type": "in vivo, rat", "settings": "for protection of bone formed in the marrow cavity (Micro-CT): BMX + PTH 21 days, then anti-resorptive drug for an additional 63 days, FIG. 7B", "from_the_text": "FIG. 1B depicts the results from the same groups of animals using the imaging technique known as Micro-CT. This technique provides a high resolution analysis of the femoral shaft marrow cavity from the Control, BMX, and the BMX+PTH 1-34 NH2 of rats treated with PBS (buffer) or PTH for 21 or 84 days, respectively;\nFIG. 6B depicts the results obtained from the same groups of animals reported in FIG. 6A using the Micro-CT imaging technique. This imaging technique provides a high resolution analysis of the femoral shaft marrow cavity from the BMX+PBS or PBX+PTH treatments, compared with femurs that had biocompatible materials (Cementek or Pepgen-15) injected into the bone marrow cavity following the step (e.g., ablation) resulting in the inducement of increased osteoblast activity; and\nFIG. 7B depicts the results from the same groups of animals reported in FIG. 7A using the Micro-CT imaging technique, which provides a high resolution analysis of the femoral shaft marrow cavity."}}, "note": "Entries after “also recorded” stand apart in the source; their conditions may differ.", "data": [{"compound": "NCCCC(O)(P(=O)(O)O)P(=O)(O)O", "note": "[alendronate]", "values": [{"measurement": "protection of bone formed in the marrow cavity (calcein fluorescent signal)", "setting": "[1]", "value": "protect the bone"}, {"measurement": "protection of bone formed in the marrow cavity (calcein fluorescent signal)", "setting": "[1]; listed as Alendronate", "value": "greater protective effect"}, {"measurement": "protection of bone formed in the marrow cavity (Micro-CT)", "setting": "[2]", "value": "to a greater extent"}]}, {"compound": "PTH 1-34 NH2", "values": [{"measurement": "bone formation in femur mid-shaft (calcein)", "setting": "[1]; BMX + PTH for 21 days, day 21, FIG. 1A", "value": "leads to additional bone formation"}, {"measurement": "bone / fluorescent label remaining in ablated marrow cavity (calcein)", "setting": "[1]; BMX + PTH for 84 days, day 84, FIG. 1A / 7A", "value": "resorption of a substantial portion of the bone that was present at day 21; also recorded: contains a minimum amount of fluorescent label; also recorded: no longer contains fluorescent labels"}, {"measurement": "bone formation in femurs receiving a biocompatible matrix material (calcein)", "setting": "[1]; BMX + biocompatible matrix + PTH 84 days versus buffer (PBS), FIG. 6A", "value": "markedly greater than for buffer (PBS) alone"}, {"measurement": "bone in femoral shaft marrow cavity (Micro-CT)", "setting": "[2]; BMX + PTH 1-34 NH2 + biocompatible material versus biocompatible material alone, 84 days, FIG. 6B", "value": "better results than the use of biocompatible material alone"}, {"measurement": "newly formed bone in the marrow cavity (Micro-CT)", "setting": "[2]; BMX + PTH for 21 days, day 21, FIG. 1B", "value": "further augmented"}, {"measurement": "bone in marrow cavity of femur mid-shaft/diaphysis (Micro-CT)", "setting": "[2]; BMX + PTH for 84 days, day 84, FIG. 1B / 7B", "value": "no longer contains substantial amounts of bone; also recorded: no longer contains radio-dense bone"}]}, {"compound": "calcitonin", "values": [{"measurement": "protection of bone formed in the marrow cavity (calcein fluorescent signal)", "setting": "[1]", "value": "protected; also recorded: protect the bone"}, {"measurement": "protection of bone formed in the marrow cavity (Micro-CT)", "setting": "[2]", "value": "protects the bone"}]}]}
